Data from patent publication US6096930A, “Herbicidal cyclohexane-1,3-dione derivatives and their preparation process” (Korea Research Institute of Chemical Technology, priority 1994, dated 2000).
Like-named read-outs stand apart in the source and are kept apart here.

Assays:
Assay type in all cases: in vivo
BROJA = test: Herbicidal activity, upland test, post-emergence
Excerpt: (§1) The sterilized sandy loam soil is filled in test pot having a surface area of 348 cm^2 for upland test conditions or 115 cm^2 for paddy test species were planted in furrows.
(§2) The pots for the post-emergent tests were placed in a greenhouse and watered for 9~14 days, then the foliage of test plants was sprayed with a solution of the test compound in a mixture of acetone and water containing a small amount of Tween 20.
(§3) After spraying the plants were kept for one day, then watered regularly for 14 to 21 days, and herbicidal activity data were recorded.
(§4) The herbicidal activity data were taken visually by percent control, wherein 0 signifies no herbicidal effect and 100 signifies complete kill.

ABUTH [1] = test: Herbicidal activity, upland test, post-emergence
Excerpt: as §1, §2, §3, §4

DIGSA = test: Herbicidal activity, upland test, post-emergence
Excerpt: as §1, §2, §3, §4

ECHOR [2] = test: Herbicidal activity, upland test, post-emergence
Excerpt: as §1, §2, §3, §4

SORBI = test: Herbicidal activity, upland test, post-emergence
Excerpt: as §1, §2, §3, §4

GLXMX [3] = test: Herbicidal activity, upland test, post-emergence
Excerpt: as §1, §2, §3, §4

GOSHI = test: Herbicidal activity, upland test, post-emergence
Excerpt: as §1, §2, §3, §4

ZEAMX = test: Herbicidal activity, upland test, post-emergence
Excerpt: as §1, §2, §3, §4

PANDI [4] = test: Herbicidal activity, upland test, post-emergence
Excerpt: as §1, §2, §3, §4

ORYSA [5] = test: Herbicidal activity, upland test, post-emergence
Excerpt: as §1, §2, §3, §4

SOLNI = test: Herbicidal activity, upland test, post-emergence
Excerpt: as §1, §2, §3, §4

AESIN = test: Herbicidal activity, upland test, post-emergence
Excerpt: as §1, §2, §3, §4

TRZAW [6] = test: Herbicidal activity, upland test, post-emergence
Excerpt: as §1, §2, §3, §4

ABUTH [7] = test: Herbicidal activity, upland test, pre-emergence
Method: as §1
(§5) For the pre-emergent tests, were sprayed on the soil one day after planting test compound in a mixture of acetone and 7 ml of the water containing up to 0.1% Tween 20.
(§6) The concentration of the test compound in solution was varied to give a range of application rates, generally 4.0 kg/ha and submultiples thereof. The pots were placed in a greenhouse and watered regularly at the soil surface for 21 days and herbicidal effects were visually rated by a percent control.
as §4

GLXMX [8] = test: Herbicidal activity, upland test, pre-emergence
Method: as §1, §5, §6, §4

PANDI [9] = test: Herbicidal activity, upland test, pre-emergence
Method: as §1, §5, §6, §4

ORYSA [10] = test: Herbicidal activity, upland test, pre-emergence
Method: as §1, §5, §6, §4

TRZAW [11] = test: Herbicidal activity, upland test, pre-emergence
Method: as §1, §5, §6, §4

SAGPY = test: Herbicidal activity for paddy test
In short: (§7)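 Scores are visual estimates of percent control (0, no effect; 100, plants completely killed), recorded on species planted in furrows in sterilized sandy loam held in 115 cm^2 paddy pots.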

ECHOR [12] = test: Herbicidal activity for paddy test
In short: as §7

MOOVA = test: Herbicidal activity for paddy test
In short: as §7

ORYSA [13] = test: Herbicidal activity for paddy test; details: for plant injury at 2 g/ha: 0.002 kg/ha; for plant injury at 8 g/ha: 0.008 kg/ha; for plant injury at 31 g/ha: 0.031 kg/ha; for plant injury at 125 g/ha: 0.125 kg/ha; for plant injury at 500 g/ha: 0.500 kg/ha
In short: as §7

SCPJU = test: Herbicidal activity for paddy test
In short: as §7

[14] = 3 Leaf, read-out: Herbicidal activity, ORYSA (3 Leaf)
[15] = seed, read-out: Herbicidal activity, ORYSA (seed)

Structure (SMILES): CCC(=NOC)C1=C(O)CC(c2c(C)c(C)c3c(c2C)CC(C)(C)C3)CC1=O (stereo not drawn) [Compound 1]
- Herbicidal activity, BROJA (BROJA; 0.016 kg/ha): 0 % inhibition
- Herbicidal activity, BROJA (BROJA; 0.063 kg/ha): 40 % inhibition
- Herbicidal activity, BROJA (BROJA; 1.000 kg/ha): 100 % inhibition
- Herbicidal activity, BROJA (BROJA; 1.250 kg/ha): 70 % inhibition
- Herbicidal activity, ABUTH (ABUTH [1]; 0.016 kg/ha): 0 % inhibition
- Herbicidal activity, ABUTH (ABUTH [1]; 0.063 kg/ha): 0 % inhibition
- Herbicidal activity, ABUTH (ABUTH [1]; 1.000 kg/ha): 0 % inhibition
- Herbicidal activity, ABUTH (ABUTH [1]; 1.250 kg/ha): 0 % inhibition
- Herbicidal activity, DIGSA (DIGSA; 0.016 kg/ha): 70 % inhibition
- Herbicidal activity, DIGSA (DIGSA; 0.063 kg/ha): 100 % inhibition
- Herbicidal activity, DIGSA (DIGSA; 1.000 kg/ha): 100 % inhibition
- Herbicidal activity, DIGSA (DIGSA; 1.250 kg/ha): 100 % inhibition
- Herbicidal activity, ECHOR (ECHOR [2]; 0.016 kg/ha): 60 % inhibition
- Herbicidal activity, ECHOR (ECHOR [2]; 0.063 kg/ha): 100 % inhibition
- Herbicidal activity, ECHOR (ECHOR [2]; 1.000 kg/ha): 100 % inhibition
- Herbicidal activity, ECHOR (ECHOR [2]; 1.250 kg/ha): 100 % inhibition
- Herbicidal activity, SORBI (SORBI; 0.016 kg/ha): 0 % inhibition
- Herbicidal activity, SORBI (SORBI; 0.063 kg/ha): 20 % inhibition
- Herbicidal activity, SORBI (SORBI; 1.000 kg/ha): 100 % inhibition
- Herbicidal activity, SORBI (SORBI; 1.250 kg/ha): 60 % inhibition
- Herbicidal activity, GLXMX (GLXMX [3]; 0.016 kg/ha): 0 % inhibition
- Herbicidal activity, GLXMX (GLXMX [3]; 0.063 kg/ha): 0 % inhibition
- Herbicidal activity, GLXMX (GLXMX [3]; 1.000 kg/ha): 60 % inhibition
- Herbicidal activity, GLXMX (GLXMX [3]; 1.250 kg/ha): 20 % inhibition
- Herbicidal activity, GOSHI (GOSHI; 0.016 kg/ha): 0 % inhibition
- Herbicidal activity, GOSHI (GOSHI; 0.063 kg/ha): 30 % inhibition
- Herbicidal activity, GOSHI (GOSHI; 1.000 kg/ha): 50 % inhibition
- Herbicidal activity, GOSHI (GOSHI; 1.250 kg/ha): 40 % inhibition
- Herbicidal activity, ZEAMX (ZEAMX; 0.016 kg/ha): 0 % inhibition
- Herbicidal activity, ZEAMX (ZEAMX; 0.063 kg/ha): 30 % inhibition
- Herbicidal activity, ZEAMX (ZEAMX; 1.000 kg/ha): 100 % inhibition
- Herbicidal activity, ZEAMX (ZEAMX; 1.250 kg/ha): 100 % inhibition
- Herbicidal activity, PANDI (PANDI [4]; 0.016 kg/ha): 40 % inhibition
- Herbicidal activity, PANDI (PANDI [4]; 0.063 kg/ha): 100 % inhibition
- Herbicidal activity, PANDI (PANDI [4]; 1.000 kg/ha): 100 % inhibition
- Herbicidal activity, PANDI (PANDI [4]; 1.250 kg/ha): 100 % inhibition
- Herbicidal activity, ORYSA (ORYSA [5]; 0.016 kg/ha): 0 % inhibition
- Herbicidal activity, ORYSA (ORYSA [5]; 0.063 kg/ha): 50 % inhibition
- Herbicidal activity, ORYSA (ORYSA [5]; 1.000 kg/ha): 100 % inhibition
- Herbicidal activity, ORYSA (ORYSA [5]; 1.250 kg/ha): 100 % inhibition
- Herbicidal activity, SOLNI (SOLNI; 0.016 kg/ha): 0 % inhibition
- Herbicidal activity, SOLNI (SOLNI; 0.063 kg/ha): 0 % inhibition
- Herbicidal activity, SOLNI (SOLNI; 1.000 kg/ha): 0 % inhibition
- Herbicidal activity, SOLNI (SOLNI; 1.250 kg/ha): 0 % inhibition
- Herbicidal activity, AESIN (AESIN; 0.016 kg/ha): 0 % inhibition
- Herbicidal activity, AESIN (AESIN; 0.063 kg/ha): 0 % inhibition
- Herbicidal activity, AESIN (AESIN; 1.000 kg/ha): 0 % inhibition
- Herbicidal activity, AESIN (AESIN; 1.250 kg/ha): 0 % inhibition
- Herbicidal activity, TRZAW (TRZAW [6]; 0.016 kg/ha): 30 % inhibition
- Herbicidal activity, TRZAW (TRZAW [6]; 0.063 kg/ha): 40 % inhibition
- Herbicidal activity, TRZAW (TRZAW [6]; 1.000 kg/ha): 100 % inhibition
- Herbicidal activity, TRZAW (TRZAW [6]; 1.250 kg/ha): 60 % inhibition
- Herbicidal activity, ABUTH (ABUTH [7]; 0.016 kg/ha): 0 % inhibition
- Herbicidal activity, ABUTH (ABUTH [7]; 0.063 kg/ha): 0 % inhibition
- Herbicidal activity, ABUTH (ABUTH [7]; 1.000 kg/ha): 0 % inhibition
- Herbicidal activity, ABUTH (ABUTH [7]; 1.250 kg/ha): 0 % inhibition
- Herbicidal activity, GLXMX (GLXMX [8]; 0.016 kg/ha): 0 % inhibition
- Herbicidal activity, GLXMX (GLXMX [8]; 0.063 kg/ha): 0 % inhibition
- Herbicidal activity, GLXMX (GLXMX [8]; 1.000 kg/ha): 0 % inhibition
- Herbicidal activity, GLXMX (GLXMX [8]; 1.250 kg/ha): 0 % inhibition
- Herbicidal activity, PANDI (PANDI [9]; 0.016 kg/ha): 0 % inhibition
- Herbicidal activity, PANDI (PANDI [9]; 0.063 kg/ha): 100 % inhibition
- Herbicidal activity, PANDI (PANDI [9]; 1.000 kg/ha): 100 % inhibition
- Herbicidal activity, PANDI (PANDI [9]; 1.250 kg/ha): 100 % inhibition
- Herbicidal activity, ORYSA (ORYSA [10]; 0.016 kg/ha): 0 % inhibition
- Herbicidal activity, ORYSA (ORYSA [10]; 0.063 kg/ha): 30 % inhibition
- Herbicidal activity, ORYSA (ORYSA [10]; 1.000 kg/ha): 100 % inhibition
- Herbicidal activity, ORYSA (ORYSA [10]; 1.250 kg/ha): 100 % inhibition
- Herbicidal activity, TRZAW (TRZAW [11]; 0.016 kg/ha): 0 % inhibition
- Herbicidal activity, TRZAW (TRZAW [11]; 0.063 kg/ha): 0 % inhibition
- Herbicidal activity, TRZAW (TRZAW [11]; 1.000 kg/ha): 60 % inhibition
- Herbicidal activity, TRZAW (TRZAW [11]; 1.250 kg/ha): 20 % inhibition
- pest or weed control at 2 g/ha (SAGPY; 0.002 kg/ha): 0%
- pest or weed control at 8 g/ha (SAGPY; 0.008 kg/ha): 0%
- pest or weed control at 31 g/ha (SAGPY; 0.031 kg/ha): 0%
- pest or weed control at 125 g/ha (SAGPY; 0.125 kg/ha): 0%
- pest or weed control at 500 g/ha (SAGPY; 0.500 kg/ha): 0%
- pest or weed control at 2 g/ha (ECHOR [12]; 0.002 kg/ha): 95%
- pest or weed control at 8 g/ha (ECHOR [12]; 0.008 kg/ha): 95%
- pest or weed control at 31 g/ha (ECHOR [12]; 0.031 kg/ha): 100%
- pest or weed control at 125 g/ha (ECHOR [12]; 0.125 kg/ha): 100%
- pest or weed control at 500 g/ha (ECHOR [12]; 0.500 kg/ha): 100%
- pest or weed control at 2 g/ha (MOOVA; 0.002 kg/ha): 0%
- pest or weed control at 8 g/ha (MOOVA; 0.008 kg/ha): 0%
- pest or weed control at 31 g/ha (MOOVA; 0.031 kg/ha): 0%
- pest or weed control at 125 g/ha (MOOVA; 0.125 kg/ha): 0%
- pest or weed control at 500 g/ha (MOOVA; 0.500 kg/ha): 0%
- plant injury at 2 g/ha (ORYSA [13]; [14]): 0%
- plant injury at 8 g/ha (ORYSA [13]; [14]): 0%
- plant injury at 31 g/ha (ORYSA [13]; [14]): 0%
- plant injury at 125 g/ha (ORYSA [13]; [14]): 90%
- plant injury at 500 g/ha (ORYSA [13]; [14]): 100%
- plant injury at 2 g/ha (ORYSA [13]; [15]): 0%
- plant injury at 8 g/ha (ORYSA [13]; [15]): 70%
- plant injury at 31 g/ha (ORYSA [13]; [15]): 100%
- plant injury at 125 g/ha (ORYSA [13]; [15]): 100%
- plant injury at 500 g/ha (ORYSA [13]; [15]): 100%
- pest or weed control at 2 g/ha (SCPJU; 0.002 kg/ha): 0%
- pest or weed control at 8 g/ha (SCPJU; 0.008 kg/ha): 0%
- pest or weed control at 31 g/ha (SCPJU; 0.031 kg/ha): 0%
- pest or weed control at 125 g/ha (SCPJU; 0.125 kg/ha): 0%
- pest or weed control at 500 g/ha (SCPJU; 0.500 kg/ha): 0%
